Experimental data as given in patent publication US11076594B2, “Pyrazolone compound or salt thereof, preparation method therefor, herbicide composition and use thereof” (QINGDAO KINGAGROOT CHEMICAL COMPOUNDS CO., LTD., priority 2015, dated 2021).

Columns and labels:
Format in all cases: in vivo
Details in all cases: post-emergence spray at 4-5 leaf stage, 250 g/ha active ingredient with 450 kg/ha water, rated after 3 weeks in greenhouse
Indian mallow = assay: weed control effect in post-emergence stage (Table 1); parameters: key: Level 10: completely dead; Level 9: above 95% growth control rate; Level 8: above 90% growth control rate; Level 7: above 80% growth control rate; Level 6: above 70% growth control rate; Level 5: above 60% growth control rate; Level 4: above 50% growth control rate; Level 3: above 20% growth control rate; Level 2: 5%-20% growth control rate; Level 1: below 5% growth control rate
How it was run: (§1)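 Weeds and crops grown in soil-filled pots in a greenhouse were sprayed at the 4-5 leaf stage (2-3 weeks after sowing). Compounds were applied in acetone with tween 80, diluted in water. After 3 weeks' culture, growth control was scored as fresh weight control rate.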

bidens bipinnata = assay: as above; parameters: key: Level 10: completely dead; Level 9: above 95% growth control rate; Level 8: above 90% growth control rate; Level 7: above 80% growth control rate; Level 6: above 70% growth control rate; Level 5: above 60% growth control rate; Level 4: above 50% growth control rate; Level 3: above 20% growth control rate; Level 2: 5%-20% growth control rate; Level 1: below 5% growth control rate
How it was run: as §1

crab grass = assay: as above; parameters: key: Level 10: completely dead; Level 9: above 95% growth control rate; Level 8: above 90% growth control rate; Level 7: above 80% growth control rate; Level 6: above 70% growth control rate; Level 5: above 60% growth control rate; Level 4: above 50% growth control rate; Level 3: above 20% growth control rate; Level 2: 5%-20% growth control rate; Level 1: below 5% growth control rate
How it was run: as §1

echinochloa = assay: as above; parameters: key: Level 10: completely dead; Level 9: above 95% growth control rate; Level 8: above 90% growth control rate; Level 7: above 80% growth control rate; Level 6: above 70% growth control rate; Level 5: above 60% growth control rate; Level 4: above 50% growth control rate; Level 3: above 20% growth control rate; Level 2: 5%-20% growth control rate; Level 1: below 5% growth control rate
How it was run: as §1

foxtail = assay: as above; parameters: key: Level 10: completely dead; Level 9: above 95% growth control rate; Level 8: above 90% growth control rate; Level 7: above 80% growth control rate; Level 6: above 70% growth control rate; Level 5: above 60% growth control rate; Level 4: above 50% growth control rate; Level 3: above 20% growth control rate; Level 2: 5%-20% growth control rate; Level 1: below 5% growth control rate
How it was run: as §1

rorippa indica = assay: as above; parameters: key: Level 10: completely dead; Level 9: above 95% growth control rate; Level 8: above 90% growth control rate; Level 7: above 80% growth control rate; Level 6: above 70% growth control rate; Level 5: above 60% growth control rate; Level 4: above 50% growth control rate; Level 3: above 20% growth control rate; Level 2: 5%-20% growth control rate; Level 1: below 5% growth control rate
How it was run: as §1

corn = assay: post-emergence stage experiment, crop (Table 1)
How it was run: as §1

wheat = assay: post-emergence stage experiment, crop (Table 1)
How it was run: as §1

rice = assay: post-emergence stage experiment, crop (Table 1); parameters: key: Level 10: completely dead; Level 9: above 95% growth control rate; Level 8: above 90% growth control rate; Level 7: above 80% growth control rate; Level 6: above 70% growth control rate; Level 5: above 60% growth control rate; Level 4: above 50% growth control rate; Level 3: above 20% growth control rate; Level 2: 5%-20% growth control rate; Level 1: below 5% growth control rate
How it was run: as §1

| Structure (SMILES) | weed control effect, Indian mallow (level) (Indian mallow) | weed control effect, Bidens bipinnata (level) (bidens bipinnata) | weed control effect, Crab grass (level) (crab grass) | weed control effect, Echinochloa (level) (echinochloa) | weed control effect, Green foxtail (level) (foxtail) | weed control effect, Rorippa indica (level) (rorippa indica) | effect on crop, Corn (level) (corn) | effect on crop, Wheat (level) (wheat) | effect on crop, Rice (level) (rice) |
| --- | --- | --- | --- | --- | --- | --- | --- | --- | --- |
| Cc1nn(C)c(OC(=O)c2cnn(C)c2)c1C(=O)c1ccc(C(F)(F)F)c(N2CCCCCC2=O)c1Cl [Compound 057] | 10 | 5 (Level 5: above 60% growth control rate) | 1 (Level 1: below 5% growth control rate) | 4 (Level 4: above 50% growth control rate) | 1 (Level 1: below 5% growth control rate) | 10 | 0 | 0 | 3 (Level 3: above 20% growth control rate) |
| CCn1nc(C2CC2)c(C(=O)c2ccc(C(F)(F)F)c(-n3cc(C)cn3)c2Cl)c1O [Compound 144] | 10 | 10 | 2 (Level 2: 5%-20% growth control rate) | 10 | 9 (Level 9: above 95% growth control rate) | 2 (Level 2: 5%-20% growth control rate) | 0 | 0 | 8 (Level 8: above 90% growth control rate) |
| CCOC(=O)Oc1c(C(=O)c2ccc(C(F)(F)F)c(N3CCCCC3=O)c2Cl)c(C)nn1C [Compound 036] | 5 (Level 5: above 60% growth control rate) | 6 (Level 6: above 70% growth control rate) | 5 (Level 5: above 60% growth control rate) | 7 (Level 7: above 80% growth control rate) | 10 | 5 (Level 5: above 60% growth control rate) | 0 | 3 (Level 3: above 20% growth control rate) | 8 (Level 8: above 90% growth control rate) |
| Cc1nn(C)cc1C(=O)Oc1c(C(=O)c2ccc(C(F)(F)F)c(N3CCCC3=O)c2Cl)cnn1C [Compound 016] | 10 | 5 (Level 5: above 60% growth control rate) | 10 | 10 | 10 | 10 | 3 (Level 3: above 20% growth control rate) | 3 (Level 3: above 20% growth control rate) | 4 (Level 4: above 50% growth control rate) |
| CCS(=O)(=O)Oc1c(C(=O)c2ccc(C(F)(F)F)c(N3CCCCC3=O)c2Cl)cnn1C [Compound 031] | 7 (Level 7: above 80% growth control rate) | 6 (Level 6: above 70% growth control rate) | 9 (Level 9: above 95% growth control rate) | 5 (Level 5: above 60% growth control rate) | 10 | 8 (Level 8: above 90% growth control rate) | 9 (Level 9: above 95% growth control rate) | 3 (Level 3: above 20% growth control rate) | 1 (Level 1: below 5% growth control rate) |
| CCOc1c(C(=O)Oc2c(C(=O)c3ccc(C(F)(F)F)c(N4CCCC4=O)c3Cl)cnn2C)cnn1C [Compound 015] | 8 (Level 8: above 90% growth control rate) | 8 (Level 8: above 90% growth control rate) | 9 (Level 9: above 95% growth control rate) | 5 (Level 5: above 60% growth control rate) | 10 | 9 (Level 9: above 95% growth control rate) | 9 (Level 9: above 95% growth control rate) | 2 (Level 2: 5%-20% growth control rate) | 2 (Level 2: 5%-20% growth control rate) |
| CCOC(=O)Oc1c(C(=O)c2ccc(C(F)(F)F)c(-n3cccn3)c2Cl)c(C)nn1C [Compound 069] | 10 | 10 | 3 (Level 3: above 20% growth control rate) | 6 (Level 6: above 70% growth control rate) | 10 | 0 | 0 | 0 | 5 (Level 5: above 60% growth control rate) |
| CCn1nc(C2CC2)c(C(=O)c2ccc(C(F)(F)F)c(N3CCCC3=O)c2Cl)c1OC(=O)c1cn(C)nc1C [Compound 105] | 9 (Level 9: above 95% growth control rate) | 10 | 10 | 10 | 10 | 10 | 5 (Level 5: above 60% growth control rate) | 5 (Level 5: above 60% growth control rate) | 10 |
| CCn1ncc(C(=O)c2ccc(C(F)(F)F)c(N3CCCCCC3=O)c2Cl)c1OC(=O)c1cn(C)nc1C [Compound 117] | 9 (Level 9: above 95% growth control rate) | 10 | 3 (Level 3: above 20% growth control rate) | 10 | 10 | 5 (Level 5: above 60% growth control rate) | 0 | 0 | 9 (Level 9: above 95% growth control rate) |
| CCc1nn(CC)c(O)c1C(=O)c1ccc(C(F)(F)F)c(N2CCCCC2=O)c1Cl [Compound 112] | 5 (Level 5: above 60% growth control rate) | 1 (Level 1: below 5% growth control rate) | 6 (Level 6: above 70% growth control rate) | 10 | 5 (Level 5: above 60% growth control rate) | 2 (Level 2: 5%-20% growth control rate) | 3 (Level 3: above 20% growth control rate) | 3 (Level 3: above 20% growth control rate) | 7 (Level 7: above 80% growth control rate) |
| Cc1nn(C)cc1C(=O)Oc1c(C(=O)c2ccc(C(F)(F)F)c(N3CCCCC3=O)c2Cl)cnn1C [Compound 034] | 9 (Level 9: above 95% growth control rate) | 4 (Level 4: above 50% growth control rate) | 10 | 10 | 5 (Level 5: above 60% growth control rate) | 10 | 3 (Level 3: above 20% growth control rate) | 1 (Level 1: below 5% growth control rate) | 3 (Level 3: above 20% growth control rate) |
| Cc1cnn(-c2c(C(F)(F)F)ccc(C(=O)c3c(C4CC4)nn(C)c3O)c2Cl)c1 [Compound 089] | 10 | 3 (Level 3: above 20% growth control rate) | 1 (Level 1: below 5% growth control rate) | 5 (Level 5: above 60% growth control rate) | 2 (Level 2: 5%-20% growth control rate) | 9 (Level 9: above 95% growth control rate) | 1 (Level 1: below 5% growth control rate) | 0 | 1 (Level 1: below 5% growth control rate) |
